This is an account of results in patent US20130096021A1, “RECURRENT GENE FUSIONS IN BREAST CANCER” (priority 2011, published 2013).

One data set concerns Notch signaling pathway. The data set can be described thus: Notch reporter luciferase assay after DAPT treatment. Type of data set: cell-based, human. The following applies: lysates 24 hours after DAPT. The method, then: Breast cancer cells were seeded into 24-well dishes in triplicate and allowed to attach overnight. Cells were then infected with a Notch-reporter construct Lenti-RBPJ-firefly luciferase together with a Lenti-CMV-Renilla luciferase control (SABiosciences/QIAGEN). The two lentiviral stocks were mixed at a ratio of 50 Notch reporters to 1 CMV control and a single mixture was used to infect all recipient cell lines at a MOI of 100. Following incubation for 48 hours, cell lysates were prepared and measured for Notch activity using Promega Dual Luciferase reagents and Passive Lysis Buffer. Firefly luciferase levels were normalized using corresponding Renilla luciferase levels for each cell line. To confirm that Notch pathways are activated in the index cell lines through Notch gene rearrangements, the activated NOTCH1 and NOTCH2 alleles were cloned from HCC1599, HCC2218, and HCC1187 into a pcDNA3.1 vector. These expression constructs, pcDNA3.1-1599-NOTCH1, pcDNA3.1-2218-NOTCH1, and pcDNA3.1-1187-NOTCH2 and positive control NOTCH1-NICD, were individually transfected into 293T cells along with the pGL4-RBPJ-4X reporter plasmid and pTKRenilla luciferase control plasmid. Cells were harvested for luciferase activity assays 24 hours after transfection and assayed as above.
Notch fusion alleles provide a target for therapeutic intervention. The three characterized Notch fusions represent two functional classes. The first class, exemplified by the HCC2218 and HCC1599 fusions, produces a protein similar to that produced by the ADAM17/TACE catalyzed S2 cleavage, which occurs during ligand activation of the Notch pathway. The second class, exemplified by the HCC1187 fusion, produces a protein similar to the NICD produced after cleavage at S3 by γ-secretase. […] Each of the three cell lines was treated with the γ-secretase inhibitor DAPT 31, and luciferase activity was measured in cell lysates 24 hours later. […] A panel of six breast cell lines were treated with DAPT at 0, 0.3, 1, and 3 μM, and cell proliferation was measured using a WST-1 assay over a six day time course.

Data set [1] relates to γ-secretase-cleaved NOTCH1 (NICD). The data set can be described thus: Western blot of NICD levels after DAPT treatment. Type of data set: cell-based, human. The method, then:
For MAST2 fusion protein detection, cell pellets were sonicated in NP40 lysis buffer (50 mM Tris-HCl, 1% NP40, pH 7.4, Sigma), complete protease inhibitor mixture (Roche) and phosphatase inhibitor (EMD bioscience) Immunoblot analysis for MAST2 was carried out using MAST2 antibody from Novus Biologicals. Human β-actin antibody (Sigma) was used as a loading control. For NOTCH1 protein detection, cells were lysed in RIPA buffer containing protease inhibitor cocktail (Pierce). Proteins were separated by SDS-PAGE, transferred to nitrocellulose membranes and probed with antibodies recognizing total NOTCH1 (Cell Signaling), γ-secretase-cleaved NOTCH1 (NICD, Cell Signaling), or beta-actin (Santa Cruz). The signal was detected by chemiluminescence using Immun-Star Western C reagents (Bio-Rad).
Notch fusion alleles provide a target for therapeutic intervention. The three characterized Notch fusions represent two functional classes. […] Each of the three cell lines was treated with the γ-secretase inhibitor DAPT 31, and luciferase activity was measured in cell lysates 24 hours later. […] A panel of six breast cell lines were treated with DAPT at 0, 0.3, 1, and 3 μM, and cell proliferation was measured using a WST-1 assay over a six day time course.
(In general: A western blot detects proteins with antibodies after separation by electrophoresis.)

Data set [2] has as its system Notch target genes CCND1, MYC, and HEY1. The data set can be described thus: Expression of Notch target genes after DAPT treatment. Type of data set: cell-based, human. The following applies: 24-hour time course, cell lines with γ-secretase dependent Notch fusions.
Another data set deals with HCC1187 cells. Description: WST-1 cell proliferation assay with DAPT. Type of data set: cell-based, human. The following applies: DAPT 0.3, 1, and 3 μM, six day time course. The procedure:
(§1) For cell proliferation assays, cells were seeded into 96-well plates in triplicate and allowed to attach overnight before drug treatment. The γ-secretase inhibitor DAPT (EMD Biosciences) was added to the cultures the next day at concentrations of 0, 0.3, 1, and 3 μM. Relative cell numbers were measured by WST-1 assays at indicated time points following the manufacturer's instructions (Roche).
(§2) Notch fusion alleles provide a target for therapeutic intervention. The three characterized Notch fusions represent two functional classes. The first class, exemplified by the HCC2218 and HCC1599 fusions, produces a protein similar to that produced by the ADAM17/TACE catalyzed S2 cleavage, which occurs during ligand activation of the Notch pathway. The second class, exemplified by the HCC1187 fusion, produces a protein similar to the NICD produced after cleavage at S3 by γ-secretase. The first class requires cleavage at S3 site by γ-secretase to release NICD, and thus would be expected to be sensitive to γ-secretase inhibitors (GSIs). The second class would be unaffected by GSIs, as the fusion generates an ORF similar to NICD. To test this, stable Notch reporter cell lines were established from each of the three Notch fusion positive carcinoma lines by infection with a lentivirus carrying the Notch responsive promoter driving firefly luciferase. Each of the three cell lines was treated with the γ-secretase inhibitor DAPT 31, and luciferase activity was measured in cell lysates 24 hours later. […] A panel of six breast cell lines were treated with DAPT at 0, 0.3, 1, and 3 μM, and cell proliferation was measured using a WST-1 assay over a six day time course.
A general note: Formazan colour is commonly taken as a measure of viable cells.

Data set [3] concerns other breast cell lines not expressing Notch fusion alleles. The data set can be described thus: WST-1 cell proliferation assay with DAPT. The following applies: DAPT 0.3, 1, and 3 μM, six day time course. Type of data set: cell-based, human. The procedure:
as §1, §2

The next data set relates to HCC1599 cells. The data set can be described thus: WST-1 cell proliferation assay with DAPT. Type of data set: cell-based, human. The following applies: DAPT 0.3, 1, and 3 μM, six day time course. The method, then: as §1, §2
The next data set relates to HCC2218 cells. Description: WST-1 cell proliferation assay with DAPT. Type of data set: cell-based, human. The following applies: DAPT 0.3, 1, and 3 μM, six day time course. The procedure:
as §1, §2

Procedure for HCC1599 xenograft: Four week-old female SCID C.B17 mice were procured from a breeding colony at University of Michigan. […] Mice were anesthetized using a cocktail of xylazine (80 mg/kg IP) and ketamine (10 mg/kg IP) for chemical restraint. MAST2 shRNA or scrambled shRNA knockdown MDA-MB-468 breast cancer cells (4 million) or NOTCH1 fusion allele positive HCC1599 breast cancer cell line (5 million) were resuspended in 100 ul of 1×PBA with 20% Matrigel (BD Biosciences) and implanted into right and left abdominal-inguinal mammary fat. Ten mice were included in each group. Two weeks after tumor implantation, HCC1599 xenograted mice were treated with γ-secretase inhibitor (DAPT) dissolved in 5% ethanol in corn oil (IP). Mice in control group also received 5% ethanol in corn oil as vehicle control. Tumor growth was recorded weekly by using digital calipers and tumor volumes were calculated using the formula (R/6) (L×W2), where L=length of tumor and W=width.
This was tested further by establishing a xenograft tumor model of HCC1599 in immunodeficient mice.

For the compound `C[C@H](NC(=O)Cc1cc(F)cc(F)c1)C(=O)N[C@H](C(=O)OC(C)(C)C)c1ccccc1` [DAPT, N—[N-(3,5-difluorophenacetyl)-L-alanyl]-S-phenylglycine t-butyl ester], the “Notch reporter activity (luciferase)” value is “only slightly diminished” in the data set on Notch signaling pathway (HCC1187 stable Notch reporter line), “dramatic reduction” in the data set on Notch signaling pathway (HCC1599 stable Notch reporter line) and “dramatic reduction” in the data set on Notch signaling pathway (HCC2218 stable Notch reporter line). Also, the “NICD levels (Western blot)” value in data set [1] (HCC1599 cells after DAPT treatment) is “nearly complete elimination”; in data set [1] (HCC2218 cells after DAPT treatment), “dramatically reduced”. The tumor volume entry in the data set on HCC1599 xenograft (HCC1599 xenograft in immunodeficient mice, DAPT IP, versus untreated controls) is “significantly reduced”. For the same compound, the overall body weight result in the data set with HCC1599 xenograft (mouse, in vivo) is “No effect”. Further, the “Notch target gene expression” value in data set [2] was “repressed”. In addition, the cell proliferation entry is given as “no reduction in proliferation” in the data set with HCC1187 cells, “no reduction in proliferation” in data set [3], “dramatic reduction in proliferation” in the data set on HCC1599 cells and “significant reduction in proliferation” with HCC2218 cells.
